Results taken from paper PMC8151276, “An Integrated Approach toward NanoBRET Tracers for Analysis of GPCR Ligand Engagement” (Molecules, 2021).

Biological target: T1, HTR1B (Homo sapiens, UniProt P28222)
T1 construct: purchased Promega (in-house HiBiT-GPCR construct library, NanoBRET)
Assay: NanoBRET screen HiBiT-HTR1B in HEK293
Format: binding
Procedure: Each tracer candidate was screened across the entire library of HiBiT-GPCR constructs using NanoBRET as the detection modality. As depicted in Figure 4A, the specificity of interactions was evaluated through decrease in BRET due to competitive displacement of a bound tracer by excess parental compound. Each tracer was analyzed for binding to each HiBiT-GPCR fusion in the absence and in the presence of competing parental compound. Briefly, HEK293 cells were transfected with HiBiT-GPCR constructs diluted into promoterless DNA to reduce expression and maximize translocation to the cell surface. Each tracer candidate was then screened at concentrations of 1 μM and 0.1 μM across cells expressing these fusions. Cells were treated for 1.5 h with tracer either alone or in the presence of 20 μM competing parental compound (i.e., control). BRET was measured upon addition of purified LgBiT and subsequent complementation with HiBiT genetically fused to a GPCR. The specificity of interactions was assessed through a decrease in BRET signal due to competitive displacement of the bound tracer. To further gauge the robustness of these interactions, the fold response over the control (i.e., BRETtracer/BRETcontrol) was calculated. We chose a 1.5-fold response, which translates to ≥7-fold signal over noise as the minimal threshold required to score an interaction as positive. […]. Below we highlight the screening results obtained for our exemplary fluorescent tracers based on Clozapine, Amitriptyline and AZD1283.
HiBiT-GPCR DNA constructs were diluted in 10 mM Tris pH 8 to a final concentration of 0.01 μg/μL, arrayed in 96-well plates and stored at −20 °C. For transfection, HEK293 cells were suspended in Opti-MEM (without phenol red) supplemented with 2% fetal bovine serum (Seradigm) and 100 units/mL penicillin–streptomycin (Gibco) at a final concentration of 220,000 cells/mL and dispensed into white 96-well plates at 90 μL/well. Subsequent transfections and screens were carried using an Agilent Bravo Automated Liquid Handling Platform. First, the 96-well HiBiT DNA arrays were diluted 25-fold in Opti-MEM (without serum or phenol red) to a final concentration of 0.0004 μg/μL and 20 μL of the diluted DNAs were transferred into new 96-well plates. Next, promoterless carrier DNA (1 μg/μL) was diluted 25-fold (0.04 μg/μL) and then dispensed into the diluted arrays at 20 μL/well. Following brief mixing, Viafect transfection reagent (Promega) diluted 16-fold into Opti-MEM was dispensed into the plates at 40 μL/well. After mixing by pipetting, plates were incubated for 10 min on the pipetting station deck. The DNA-transfection reagent complexes were then added to plates containing cells. To facilitate the screen, 10 μL of DNA-transfection reagent complexes were added in duplicates to the top 4 and bottom 4 rows, resulting in two identical 48-well arrays per plate. Plates with transfected cells were incubated for 18–20 h at 37 °C/5% CO2. A screen of each tracer across the entire library using two different concentrations requires duplicate plates of transfected cells. Depending on the number of tracers being screened, transfections can be scaled up using the same ratios. The next day, for each tracer, four 20× screening solutions in tracer dilution buffer (Promega) were prepared: two duplicates at final concentration of 20 μM and two duplicates at a final concentration of 2 μM. A competing unmodified compound was added to one of each duplicate at a final concentration of 400 μM. The four resulting solutions were diluted 4-fold in Opti-MEM without serum or phenol red to generate 5× solutions (5 µM and 0.5 µM tracer +/− 100 μM competing compound). To screen the library, a BioTek MultiFlo FX liquid dispenser was used to dispense 22.5 µL of tracer solution to the top 4 rows and 22.5 µL tracer + competing compound solution to the 4 bottom rows. Plates were briefly mixed on an orbital shaker and incubated for 1.5 h at room temperature. […]

T1 sequence (P28222 whole entry): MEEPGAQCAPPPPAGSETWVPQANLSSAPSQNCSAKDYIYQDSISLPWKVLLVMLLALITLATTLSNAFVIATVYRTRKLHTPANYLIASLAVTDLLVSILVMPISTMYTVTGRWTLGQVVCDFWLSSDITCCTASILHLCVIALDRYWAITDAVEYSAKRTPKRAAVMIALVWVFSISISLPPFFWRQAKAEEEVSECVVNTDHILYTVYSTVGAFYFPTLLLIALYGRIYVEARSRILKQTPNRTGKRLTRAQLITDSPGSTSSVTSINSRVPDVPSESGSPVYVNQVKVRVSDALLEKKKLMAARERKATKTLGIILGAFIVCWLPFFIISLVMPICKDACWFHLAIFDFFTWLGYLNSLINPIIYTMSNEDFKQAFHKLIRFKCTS

CN1CCN(C2=Nc3cc(Cl)ccc3Nc3ccc(CNC(=O)CCOCCOCCOCCOCCNC(=O)CCc4ccc5n4[B-](F)(F)[N+]4=C(c6ccc[nH]6)C=CC4=C5)cc32)CC1 [Clozapine-b-2-NB590]
NanoBRET Fold Response (HTR1B, 0.1μM tracer): 2.07 | NanoBRET Fold Response (HTR1B, 1μM tracer): 2.97

CN(C)CCC=C1c2ccccc2CCc2ccc(C(=O)NCCNC(=O)CCOCCOCCOCCOCCNC(=O)CCc3ccc4n3[B-](F)(F)[N+]3=C(c5ccc[nH]5)C=CC3=C4)cc21 [Amitriptyline-b-2-NB590]
NanoBRET Fold Response (tracer at 0.1μM, listed as amitriptyline-b-2-NB590): 1.76 | NanoBRET Fold Response (tracer at 1μM, listed as amitriptyline-b-2-NB590): 1.34

CCOC(=O)c1cc(C#N)c(N2CCC(C(=O)NS(=O)(=O)Cc3ccccc3/C=C/C(=O)NCCNC(=O)CCc3ccc4n3[B-](F)(F)[N+]3=C(c5ccc[nH]5)C=CC3=C4)CC2)nc1C [AZD1283-1-NB590]
NanoBRET Fold Response (HTR1B, 0.1μM): 0.89 | NanoBRET Fold Response (HTR1B, 1μM): 0.99

CC(C)N(CC[C@H](c1ccccc1)c1cc(CCNC(=O)CCOCCOCCOCCOCCNC(=O)CCc2ccc3n2[B-](F)(F)[N+]2=C(c4ccc[nH]4)C=CC2=C3)ccc1O)C(C)C [Tolterodine-2-NB590]
NanoBRET Fold Response (HTR1B, tracer 0.1μM): 0.79 | NanoBRET Fold Response (HTR1B, tracer 1μM): 1.12

CC(C)N(CC[C@H](c1ccccc1)c1cc(CCNC(=O)c2ccc(CNC(=O)CCc3ccc4n3[B-](F)(F)[N+]3=C(c5ccc[nH]5)C=CC3=C4)cc2)ccc1O)C(C)C [Tolterodine-BZ-NB590]
NanoBRET Fold Response (HTR1B, tracer 0.1μM): 1.12 | NanoBRET Fold Response (HTR1B, tracer 1μM): 1.33

O=C(CCOCCOCCOCCOCCNC(=O)CCc1ccc2n1[B-](F)(F)[N+]1=C(c3ccc[nH]3)C=CC1=C2)NCCCN1CCN(C2=Nc3ccccc3Oc3ccc(Cl)cc32)CC1 [Loxapine-a-2-NB590]
NanoBRET Fold Response (HTR1B, tracer 0.1μM): 2.42 | NanoBRET Fold Response (HTR1B, tracer 1μM): 2.84

CN1CCN(C2=Nc3cc(Cl)ccc3N(CC(=O)NCCOCCOCCOCCOCCNC(=O)CCc3ccc4n3[B-](F)(F)[N+]3=C(c5ccc[nH]5)C=CC3=C4)c3ccccc32)CC1 [Clozapine-c-2-NB590]
NanoBRET Fold Response (HTR1B, 0.1μM tracer): 0.95 | NanoBRET Fold Response (HTR1B, 1μM tracer): 1.47

CN(C)CCC=C1c2ccccc2CCc2ccc(C(=O)NCCNC(=O)CCOCCOCCOCCOCCNC(=O)CCc3ccc4n3[B-](F)(F)[N+]3=C(c5ccc[nH]5)C=CC3=C4)cc21 [Amitriptyline-a-2-NB590]
NanoBRET Fold Response (tracer at 0.1μM): 0.98

Cc1nc2n(c(=O)c1CCN1CCC(c3noc4cc(F)ccc34)CC1)CCCC2OC(=O)NCCOCCOCCOCCOCCNC(=O)CCc1ccc2n1[B-](F)(F)[N+]1=C(c3ccc[nH]3)C=CC1=C2 (stereo not drawn) [Risperidone-2-NB590]
NanoBRET Fold Response (HTR1B, tracer 0.1μM): 3.33 | NanoBRET Fold Response (HTR1B, tracer 1μM): 2.70

COc1ccc2[nH]c(-c3ccc(CNC(=O)CCOCCOCCOCCOCCNC(=O)CCc4ccc5n4[B-](F)(F)[N+]4=C(c6ccc[nH]6)C=CC4=C5)cc3)c(CCNC(C)=O)c2n1 [AzomelatoninICO9-2-NB590]
NanoBRET Fold Response (0.1μM tracer): 0.92 | NanoBRET Fold Response (1μM tracer): 1.13

COc1ccccc1N1CCN(CCCCN2C(=O)c3ccc(CNC(=O)CCOCCOCCOCCOCCNC(=O)CCc4ccc5n4[B-](F)(F)[N+]4=C(c6ccc[nH]6)C=CC4=C5)cc3C2=O)CC1 [NAN-190-2-NB590]
NanoBRET Fold Response (HTR1B, tracer 0.1μM): 1.73 | NanoBRET Fold Response (HTR1B, tracer 1μM): 1.25

O=C(CCc1ccc2n1[B-](F)(F)[N+]1=C(c3ccc[nH]3)C=CC1=C2)NCCOCCOCCNC(=O)OCCOCCN1CCN(C2=Nc3ccccc3Sc3ccccc32)CC1 [Quetiapine-a-2-NB590]
NanoBRET Fold Response (HTR1B, tracer 0.1μM): 1.03 | NanoBRET Fold Response (HTR1B, tracer 1μM): 1.58

O=C(CCOCCOCCOCCOCCNC(=O)CCc1ccc2n1[B-](F)(F)[N+]1=C(c3ccc[nH]3)C=CC1=C2)NCCCN1CCN(C2=Nc3cc(Cl)ccc3Nc3ccccc32)CC1 [Clozapine-a-2-NB590]
NanoBRET Fold Response (HTR1B, 0.1μM tracer): 4.16 | NanoBRET Fold Response (HTR1B, 1μM tracer): 2.29

N#CN=C(NCCCOc1cccc(CN2CCCCC2)c1)NCCNC(=O)CCOCCOCCOCCOCCNC(=O)CCc1ccc2n1[B-](F)(F)[N+]1=C(c3ccc[nH]3)C=CC1=C2 [Aminopotentidine-2-NB590]
NanoBRET Fold Response (HTR1B, tracer 0.1μM): 0.98 | NanoBRET Fold Response (HTR1B, tracer 1μM): 1.03

O=C(CCc1ccc2n1[B-](F)(F)[N+]1=C(c3ccc[nH]3)C=CC1=C2)NCc1ccc(C(=O)NCCOCCOCCNCC(O)COc2cccc3ccccc23)cc1 (stereo not drawn) [Propranolol-3-NB590]
NanoBRET Fold Response (HTR1B, 0.1μM): 0.99 | NanoBRET Fold Response (HTR1B, 1μM): 1.06

O=C(CCc1ccc2n1[B-](F)(F)[N+]1=C(c3ccc[nH]3)C=CC1=C2)NCc1ccc(C(=O)NCCOCCC(=O)N[C@@H]2CC[C@@]3(O)[C@H]4Cc5ccc(O)c6c5[C@@]3(CCN4CC3CC3)[C@H]2O6)cc1 [Naltrexone-3-NB590]
NanoBRET Fold Response (HTR1B, tracer 0.1μM): 1.01 | NanoBRET Fold Response (HTR1B, tracer 1μM): 1.33

COc1ccccc1N1CCN(CCCCN2C(=O)c3ccc(CNC(=O)CCOCCNC(=O)c4ccc(CNC(=O)CCc5ccc6n5[B-](F)(F)[N+]5=C(c7ccc[nH]7)C=CC5=C6)cc4)cc3C2=O)CC1 [NAN-190-3-NB590]
NanoBRET Fold Response (HTR1B, tracer 0.1μM): 1.38 | NanoBRET Fold Response (HTR1B, tracer 1μM): 1.42

Cc1cc2c(s1)Nc1ccccc1N=C2N1CCN(CCCNC(=O)CCOCCOCCOCCOCCNC(=O)CCc2ccc3n2[B-](F)(F)[N+]2=C(c4ccc[nH]4)C=CC2=C3)CC1 [Olanzapine-a-2-NB590]
NanoBRET Fold Response (HTR1B, tracer 0.1μM): 2.53 | NanoBRET Fold Response (HTR1B, tracer 1μM): 2.81

CCCn1c(=O)c2[nH]c(-c3ccc(OCC(=O)NCCNC(=O)CCOCCNC(=O)c4ccc(CNC(=O)CCc5ccc6n5[B-](F)(F)[N+]5=C(c7ccc[nH]7)C=CC5=C6)cc4)cc3)nc2n(CCC)c1=O [XAC-3-NB590]
NanoBRET Fold Response (HTR1B, tracer 0.1μM): 0.66 | NanoBRET Fold Response (HTR1B, tracer 1μM): 1.24

N#CN/C(=N\CCNC(=O)c1ccc(N)cc1)NCCCOc1cccc(CN2CCCCC2)c1 [Aminopotentidine (unmodified)]
NanoBRET Fold Response (HTR1B, other tracers/Aminopotentidine (unmodified), 0.1μM): 1.50 | NanoBRET Fold Response (HTR1B, other tracers/Aminopotentidine (unmodified), 1μM): 1.48

CN(CCC=C1c2ccccc2CCc2ccccc21)C(=O)CCOCCOCCOCCOCCNC(=O)CCc1ccc2n1[B-](F)(F)[N+]1=C(c3ccc[nH]3)C=CC1=C2 [Amitriptyline-e-2-NB590]
NanoBRET Fold Response (tracer at 1μM): 1.01

COc1ccc2c(n1)c(CCNC(C)=O)cn2CCNC(=O)CCc1ccc2n1[B-](F)(F)[N+]1=C(c3ccc[nH]3)C=CC1=C2 [Azamelatonin-1-NB590]
NanoBRET Fold Response (0.1μM tracer): 0.74 | NanoBRET Fold Response (1μM tracer): 0.74
